Assay results as given in ChEMBL document CHEMBL2413034, “Novel β-dicarbonyl derivatives as inhibitors of aminopeptidase N (APN)” (Bioorg Med Chem Lett, 2013).
pIC50: −log10 of the molar value. Calls of active or inactive are those of the source. The calls are words filed in the database; no cut-off is given here.

Assays:
Aminopeptidase N = target: T1, Aminopeptidase N (Sus scrofa, UniProt P15145); assay: Inhibition of pig microsomal aminopeptidase N using L-leu-p-nitroanilide as substrate incubated for 5 mins prior to substrate addition measured after 30 mins by spectrophotometric analysis
T1 sequence (P15145 whole entry): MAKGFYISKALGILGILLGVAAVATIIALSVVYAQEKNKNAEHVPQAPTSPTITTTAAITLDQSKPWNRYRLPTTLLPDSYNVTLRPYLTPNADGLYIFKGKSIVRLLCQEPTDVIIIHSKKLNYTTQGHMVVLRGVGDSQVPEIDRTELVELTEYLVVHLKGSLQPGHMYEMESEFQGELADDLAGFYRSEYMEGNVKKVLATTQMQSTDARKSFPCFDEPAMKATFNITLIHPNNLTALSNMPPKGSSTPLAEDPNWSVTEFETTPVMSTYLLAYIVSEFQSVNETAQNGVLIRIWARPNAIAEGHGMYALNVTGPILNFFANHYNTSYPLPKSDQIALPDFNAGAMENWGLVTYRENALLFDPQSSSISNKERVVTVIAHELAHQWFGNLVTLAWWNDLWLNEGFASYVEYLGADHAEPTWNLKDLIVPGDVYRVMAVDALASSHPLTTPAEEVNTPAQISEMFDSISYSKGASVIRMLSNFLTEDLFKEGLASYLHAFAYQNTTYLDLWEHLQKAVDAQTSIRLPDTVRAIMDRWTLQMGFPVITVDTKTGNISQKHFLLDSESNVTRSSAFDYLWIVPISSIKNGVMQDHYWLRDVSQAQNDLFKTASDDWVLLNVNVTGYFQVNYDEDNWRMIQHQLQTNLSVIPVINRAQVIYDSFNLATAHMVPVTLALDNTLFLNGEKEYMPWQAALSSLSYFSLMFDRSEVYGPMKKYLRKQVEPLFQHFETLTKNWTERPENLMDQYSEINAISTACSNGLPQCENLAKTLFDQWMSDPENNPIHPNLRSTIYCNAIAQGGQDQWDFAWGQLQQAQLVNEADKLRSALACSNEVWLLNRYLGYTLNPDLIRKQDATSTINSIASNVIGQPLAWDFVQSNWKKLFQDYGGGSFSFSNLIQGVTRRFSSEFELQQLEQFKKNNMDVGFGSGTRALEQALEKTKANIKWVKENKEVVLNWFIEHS

[1] = target: Histone deacetylase 1/3/5/8 (Homo sapiens, UniProt Q13547+O15379+Q9UQL6+Q9BY41); assay: Inhibition of HDAC1/HDAC3/HDAC5/HDAC8 in human HeLa nuclear extract using Boc-Lys(acetyl)-AMC as substrate incubated for 5 mins prior to substrate measured after 30 mins by spectrophotometric analysis; assay type: protein assay
[2] = Metal chelating activity assessed as affinity to Zn2+ by spectrophotometry; assay type: functional

Structure (SMILES)	pIC50 (Aminopeptidase N)	IC50 [1]	Activity [2]
COC(=O)[C@@H](NC(=O)CC(=O)[C@@H](Cc1ccccc1)NC(=O)OC(C)(C)C)c1ccccc1	< 3.00	> 1 mM	–
CC(C)C[C@H](NC(=O)[C@@H](O)[C@H](N)Cc1ccccc1)C(=O)O [UBENIMEX]	–	> 1 mM	–
N[C@H](Cc1ccccc1)C(=O)CC(=O)N[C@H](C(=O)O)c1ccccc1	5.42	> 1 mM	–
COC(=O)CC(=O)[C@H](N)Cc1ccccc1	3.01	> 1 mM	–
COC(=O)[C@H](Cc1ccccc1)NC(=O)CC(=O)[C@H](N)Cc1ccccc1	5.15	> 1 mM	–
CC(C)C[C@H](NC(=O)CC(=O)[C@H](N)Cc1ccccc1)C(=O)O	5.85	> 1 mM	Active
N[C@H](Cc1ccccc1)C(=O)CC(=O)OCc1ccccc1	3.15	> 1 mM	–
COC(=O)CC(=O)[C@@H](Cc1ccccc1)NC(=O)OC(C)(C)C	< 3.00	> 1 mM	–
COC(=O)[C@@H](NC(=O)CC(=O)[C@H](N)Cc1ccccc1)c1ccccc1	5.22	> 1 mM	–
COc1cc(/C=C/C(=O)CC(=O)/C=C/c2ccc(O)c(OC)c2)ccc1O [CURCUMIN]	4.81	–	–
COC(=O)[C@H](CC(C)C)NC(=O)CC(=O)[C@H](N)Cc1ccccc1	5.30	> 1 mM	–
N[C@H](Cc1ccccc1)C(=O)CC(=O)N[C@@H](Cc1ccccc1)C(=O)O	5.33	> 1 mM	–
COC(=O)[C@H](CC(C)C)NC(=O)CC(=O)[C@@H](Cc1ccccc1)NC(=O)OC(C)(C)C	< 3.00	> 1 mM	–
COC(=O)[C@H](Cc1ccccc1)NC(=O)CC(=O)[C@@H](Cc1ccccc1)NC(=O)OC(C)(C)C	< 3.00	> 1 mM	–
CC(C)(C)OC(=O)N[C@H](Cc1ccccc1)C(=O)CC(=O)OCc1ccccc1	< 3.00	> 1 mM	–
